Structures are written as SMILES.

With `CC(C)CC1=N/C(=C\c2c[nH]c3ncccc23)C(=O)N1` [Example 74, (5Z)-2-(2-methylpropyl)-5-(1H-pyrrolo[2,3-b]pyridin-3-ylmethylidene)-3,5-dihydro-4H-imidazol-4-one], the melting point was 292 to 293 °C.

As to `CC(C)CC1=N/C(=C\c2c[nH]c3ncccc23)C(=O)N1C` [Example 75, (5Z)-3-methyl-2-(2-methylpropyl)-5-(1H-pyrrolo[2,3-b]pyridin-3-ylmethylidene)-3,5-dihydro-4H-imidazol-4-one], the melting point worked out at 201 °C.

Consider `CC(C)CC1=N/C(=C\c2c[nH]c3ncc(Cl)cc23)C(=O)N1C` [Example 76, (5Z)-5-[(5-chloro-1H-pyrrolo[2,3-b]pyridin-3-yl)methylidene]-3-methyl-2-(2-methylpropyl)-3,5-dihydro-4H-imidazol-4-one], for which the melting point is 282 °C.

`O=C1NC(CC2CC2)=N/C1=C\c1c[nH]c2ncccc12` [Example 77, (5Z)-2-(cyclopropylmethyl)-5-(1H-pyrrolo[2,3-b]pyridin-3-ylmethylidene)-3,5-dihydro-4H-imidazol-4-one] gave a melting point of 289 °C.

Turning to `O=C1NC(CC2CC2)=N/C1=C\c1c[nH]c2ncc(Cl)cc12` [Example 78, (5Z)-2-(cyclopropylmethyl)-5-(5-chloro-1H-pyrrolo[2,3-b]pyridin-3-ylmethylidene)-3,5-dihydro-4H-imidazol-4-one], the melting point is 295 to 296 °C.

In turn, `CC(C)C1=N/C(=C\c2c[nH]c3ncccc23)C(=O)N1` [Example 79, (5Z)-2-(1-methylethyl)-5-(1H-pyrrolo[2,3-b]pyridin-3-ylmethylidene)-3,5-dihydro-4H-imidazol-4-one] came in with a melting point of 309 to 310 °C.

For `CC(C)C1=N/C(=C\c2c[nH]c3ncc(Cl)cc23)C(=O)N1` [Example 80, (5Z)-2-(1-methylethyl)-5-(5-chloro-1H-pyrrolo[2,3-b]pyridin-3-ylmethylidene)-3,5-dihydro-4H-imidazol-4-one], the melting point was in the range of 277 to 280 °C.

Regarding `CC(C)C1=N/C(=C\c2c[nH]c3ncccc23)C(=O)N1C` [Example 81, (5Z)-3-methyl-2-(1-methylethyl)-5-(1H-pyrrolo[2,3-b]pyridin-3-ylmethylidene)-3,5-dihydro-4H-imidazol-4-one], the melting point was in the range of 222 to 224 °C.

In the case of `CC(C)C1=N/C(=C\c2c[nH]c3ncc(Cl)cc23)C(=O)N1C` [Example 82, (5Z)-5-[(5-chloro-1H-pyrrolo[2,3-b]pyridin-3-yl)methylidene]-3-methyl-2-(1-methylethyl)-3,5-dihydro-4H-imidazol-4-one], the melting point was determined as 282 °C.

In the case of `CCCN1C(=O)/C(=C/c2c[nH]c3ncccc23)N=C1C` [Example 87, (5Z)-2-methyl-3-propyl-5-(1H-pyrrolo[2,3-b]pyridin-3-ylmethylidene)-3,5-dihydro-4H-imidazol-4-one], the melting point was found to be 206 °C.

Turning to `CN(Cc1ccccc1)C1=N/C(=C\c2c[nH]c3ncc(Cl)cc23)C(=O)N1` [Example 93, (5Z)-2-[benzyl(methyl)amino]-5-[(5-chloro-1H-pyrrolo[2,3-b]pyridin-3-yl)methylidene]-3,5-dihydro-4H-imidazol-4-one], the melting point came to 310 °C.

The compound `CN(Cc1ccco1)C1=N/C(=C\c2c[nH]c3ncc(Cl)cc23)C(=O)N1` [Example 94, (5Z)-5-[(5-chloro-1H-pyrrolo[2,3-b]pyridin-3-yl)methylidene]-2-[(furan-2-ylmethyl)(methyl)amino]-3,5-dihydro-4H-imidazol-4-one] showed a melting point of 315 °C.

`COCCN(C)C1=N/C(=C\c2c[nH]c3ncc(Cl)cc23)C(=O)N1` [Example 95, (5Z)-5-[(5-chloro-1H-pyrrolo[2,3-b]pyridin-3-yl)methylidene]-2-[(2-methoxyethyl)(methyl)amino]-3,5-dihydro-4H-imidazol-4-one]: the melting point was 281 °C.

Turning to `CN(Cc1ccccn1)C1=N/C(=C\c2c[nH]c3ncc(Cl)cc23)C(=O)N1` [Example 96, (5Z)-5-[(5-chloro-1H-pyrrolo[2,3-b]pyridin-3-yl)methylidene]-2-[methyl(pyridin-2-ylmethyl)amino]-3,5-dihydro-4H-imidazol-4-one], the melting point came out at 350 °C.

`O=C1/C(=C/c2c[nH]c3ncc(Cl)cc23)N=C(Oc2ccccc2)N1c1ccccc1` [Example 97, (5Z)-5-[(5-chloro-1H-pyrrolo[2,3-b]pyridin-3-yl)methylidene]-2-phenoxy-3-phenyl-3,5-dihydro-4H-imidazol-4-one] returned a melting point of 287 °C.

Turning to `COC1=N/C(=C\c2c[nH]c3ncc(Cl)cc23)C(=O)N1c1ccccc1` [Example 98, (5Z)-5-[1-(5-chloro-1H-pyrrolo[2,3-b]pyridin-3-yl)-methylidene]-2-methoxy-3-phenyl-3,5-dihydro-4H-imidazol-4-one], the melting point was found to be 227.5 °C.

By melting point is commonly meant the temperature of the solid-liquid transition.

These data come from patent US8314121B2, “Imidazolone derivatives, preparation thereof as drugs, pharmaceutical compositions, and use thereof as protein kinase inhibitors, in particular CDC7” (Sanofi, priority 2006, dated 2012).
